Like-named read-outs stand apart in the source and are kept apart here. Blank lines part the entries; values can stand above or below the compound they belong to.
Experiments:
human NAMPT [1] = target: T1, human NAMPT (Homo sapiens, UniProt P43490); test: ADP/ATP isotope exchange catalyzed by NAMPT; type: biochemical; settings: for concentration required for half-maximal exchange activity: ADP/ATP exchange, 0.6 µM enzyme
human NAMPT [2] = target: T1, human NAMPT; test: Stimulated ATPase activity of NAMPT; type: biochemical; settings: 1 mM compound, 2 mM ATP; for ATP hydrolysis rate (ATPase activity): […] enzyme
human NAMPT [3] = target: T1, human NAMPT; test: NAMPT kinetic parameters without ATP; type: biochemical; settings: non ATP-coupled NMN synthesis
human NAMPT [4] = target: T1, human NAMPT; test: Inhibition of ATP-coupled NMN synthesis; type: biochemical
human NAMPT [5] = target: T1, human NAMPT; test: Inhibition of non ATP-coupled NMN synthesis; type: biochemical
[6] = cited from earlier work
[7] = system: human vascular smooth muscular cells; settings: cited from earlier work
human NAMPT [8] = target: T1, human NAMPT; test: NAMPT kinetic parameters with ATP; type: biochemical
human NAMPT [9] = target: T1, human NAMPT; settings: continuous fluorometric coupled assay, with ATP (2.5 mM)
[10] = system: Salmonella typhimurium NAPT; settings: cited from earlier work

T1 sequence (P43490 whole entry): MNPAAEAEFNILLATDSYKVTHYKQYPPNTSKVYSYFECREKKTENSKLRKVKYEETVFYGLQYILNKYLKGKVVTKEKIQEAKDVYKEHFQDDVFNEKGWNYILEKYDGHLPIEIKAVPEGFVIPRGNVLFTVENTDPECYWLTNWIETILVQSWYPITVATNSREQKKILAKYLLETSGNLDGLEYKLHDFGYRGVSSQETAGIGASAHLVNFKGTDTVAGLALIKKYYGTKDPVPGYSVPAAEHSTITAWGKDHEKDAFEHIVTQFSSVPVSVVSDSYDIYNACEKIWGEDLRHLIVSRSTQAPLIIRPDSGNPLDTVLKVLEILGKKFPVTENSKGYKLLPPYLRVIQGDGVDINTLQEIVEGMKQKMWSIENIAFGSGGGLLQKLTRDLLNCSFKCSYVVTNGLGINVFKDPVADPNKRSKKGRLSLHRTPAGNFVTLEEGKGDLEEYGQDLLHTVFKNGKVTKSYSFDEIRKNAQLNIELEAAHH

effect on ADP/ATP exchange (human NAMPT [1]; 10 µM): retained the same exchange rate
SMILES: Nc1ncnc2c1ncn2[C@@H]1O[C@H](COP(=O)(O)OP(=O)(O)OP(=O)(O)OP(=O)(O)OP(=O)(O)OC[C@H]2O[C@@H](n3cnc4c(N)ncnc43)[C@H](O)[C@@H]2O)[C@@H](O)[C@H]1O [Ap5A, P^1,P^5-di(adenosine-5’-) pentaphosphate, reference compound]

ATP hydrolysis rate (ATPase activity) (human NAMPT [2]): 2.6 min⁻¹
SMILES: O=P(O)(O)NP(=O)(O)O [PNP, imidodiphosphate, reference compound]

Km (human NAMPT [3]; read-out: Km of Pi): 180 ± 20 µM
SMILES: O=P(O)(O)O [Pi]

Ratio Km/Ki (NAM) (human NAMPT [4]; 2.5 mM ATP): < 1
Ratio Km/Ki (PRPP) (human NAMPT [4]; 2.5 mM ATP): 5
Ki (human NAMPT [4]; Ki versus NAM, 2.5 mM ATP): 2.1 ± 0.2 µM
Ki (human NAMPT [4]; Ki versus PRPP, 2.5 mM ATP): 0.14 ± 0.014 µM
Ki (human NAMPT [5]): > 100 µM
SMILES: NC(=O)c1ccc[n+]([C@@H]2O[C@H](COP(=O)([O-])OP(=O)(O)OC[C@H]3O[C@@H](n4cnc5c(N)ncnc54)[C@H](O)[C@@H]3O)[C@@H](O)[C@H]2O)c1 [NAD^+, nicotinamide adenine dinucleotide]

SMILES: O=C(/C=C/c1cccnc1)NCCCCC1CCN(C(=O)c2ccccc2)CC1 [FK866, (E)-N-[4-(1-benzoylpiperidin-4-yl)butyl]-3-(pyridin-3-yl) acrylamide]
binding to plasma proteins ([6]; clinical trials): substantial drug binding to plasma proteins
bioavailability ([6]; clinical trials): low bioavailability
intravenous clearance ([6]; clinical trials): rapid intravenous clearance
objective responses ([6]; continuous intravenous infusions over 96 h for a period of 4 weeks): no objective responses
NAD+ levels [7]: low levels of NAD^+
SIRT1 activity [7]: decrease of SIRT1 activity

Km (human NAMPT [8]; ATP-coupled NMN synthesis): 7400 ± 1500 µM
concentration above which NMN synthesis is inhibited (human NAMPT [8]; ATP-coupled NMN synthesis): above 4 mM
concentration required for half-maximal exchange activity (human NAMPT [1]): 2.2 ± 0.2 mM
SMILES: Nc1ncnc2c1ncn2[C@@H]1O[C@H](COP(=O)(O)OP(=O)(O)OP(=O)(O)O)[C@@H](O)[C@H]1O [ATP]

concentration required for half-maximal exchange activity (human NAMPT [1]): 0.44 ± 0.05 mM
SMILES: Nc1ncnc2c1ncn2[C@@H]1O[C@H](COP(=O)(O)OP(=O)(O)O)[C@@H](O)[C@H]1O [ADP]

ATP hydrolysis rate (ATPase activity) (human NAMPT [2]): 1.1 min⁻¹
SMILES: O=P(O)(O)OP(=O)(O)O [pyrophosphate]

Km (human NAMPT [3]; no Pi): 0.855 ± 0.022 µM
Km (human NAMPT [3]; with Pi (2 mM phosphate)): 0.235 ± 0.017 µM
Km (human NAMPT [8]; read-out: apparent Km (affinity), direct [14C]NAM assay with ATP, NAD+ present): 0.017 ± 0.002 µM
Km (human NAMPT [9]): 0.057 ± 0.006 µM
SMILES: NC(=O)c1cccnc1 [NAM, nicotinamide]

SMILES: O=P(O)(O)OC[C@H]1O[C@H](OP(=O)(O)OP(=O)(O)O)[C@H](O)[C@@H]1O [PRPP, α-D-5-phosphoribosyl-1-pyrophosphate]
Km (human NAMPT [3]; no Pi): 7.2 ± 0.6 µM
Km (human NAMPT [3]; with Pi (2 mM phosphate)): 11.7 ± 0.8 µM
Km (human NAMPT [8]; ATP-coupled NMN synthesis): 0.63 ± 0.03 µM
fold lowering of Km by ATP (human NAMPT [8]; ATP-coupled vs non ATP-coupled): 10 fold
effect on ATP hydrolysis (human NAMPT [2]): inhibited ATP hydrolysis
effect on ADP/ATP exchange (human NAMPT [1]; 100 µM): near-complete inhibition
Km ([10]; ATP-coupled NAMN synthesis): 22 ± 3.3 µM
Km ([10]; non ATP-coupled NAMN synthesis): 4500 ± 2200 µM

SMILES: NC(=O)C1=CN([C@@H]2O[C@H](COP(=O)(O)OP(=O)(O)OC[C@H]3O[C@@H](n4cnc5c(N)ncnc54)[C@H](O)[C@@H]3O)[C@@H](O)[C@H]2O)C=CC1 [NADH]
Ratio Km/Ki (NAM) (human NAMPT [4]; 2.5 mM ATP): < 1
Ratio Km/Ki (PRPP) (human NAMPT [4]; 2.5 mM ATP): 3
Ki (human NAMPT [4]; read-out: Ki versus NAM, 2.5 mM ATP): 3.2 ± 0.2 µM
Ki (human NAMPT [4]; read-out: Ki versus PRPP, 2.5 mM ATP): 0.22 ± 0.02 µM
Ki (human NAMPT [5]; read-out: Ki versus NAM, non ATP-coupled NMN synthesis, competitive vs NAM): > 100 µM

Reference: article PMC2657875 (Biochemistry, 2008)
